Data on two molecules can be found in PMC5933747 (PLoS ONE, 2018).

For data set [1], the target named is T1, human NaV1.4 (Homo sapiens, UniProt P35499). Put plainly: PatchXpress (PX) automated electrophysiology, human NaV1.4. Type of data set: cell-based. The conditions noted are these: for IC50: PX platform, at least ten cells, two to three data points per concentration. The method, then: (§1) Human NaV (hNaV) stably transfected cell lines in HEK293 or CHO backgrounds and cell culture methods were as previously described. hNaV1.1-hNaV1.7 cells were obtained from Eurofins Pharma Discovery Services (St. Charles, MO), and hNaV1.8 cells were generated in house. Whole cell patch clamp, PatchXpress, and IWQ electrophysiology voltage protocols as well as DRG neuron isolation were carried out as previously described. NaV1.7-NaV1.5 chimeras were generated and evaluated in BacMam transduced U2-OS cells on the IWQ platform as previously described.

The target of data set [2] is T2, human NaV1.5 (Homo sapiens, UniProt Q14524). The data set can be described thus: PatchXpress (PX) automated electrophysiology, human NaV1.5. Format: cell-based. Particulars: for IC50: PX platform, at least ten cells, two to three data points per concentration.
In data set [3] the test system is capsaicin-induced action potential firing in rat DRG neurons. Put plainly: Multi-electrode array (MEA), capsaicin-induced action potential firing in rat DRG neurons. Particulars: cultured rat DRG neurons, 25 nM capsaicin (EC80) co-applied, 37°C, six replicate wells, read-out: IC50 for block of capsaicin-induced action potential firing. Type of data set: cell-based. The procedure:
Action potentials of cultured postnatal day 2 rat DRG neurons (Lonza, Walkersville, MD) were detected using the Maestro multi-well plate-based MEA system (Axion Biosystems, Atlanta, GA). A 48-well MEA plate containing 16 electrodes/well was pre-coated with 10μL 0.1% PEI (Sigma-Aldrich, St. Louis, MO) in borate buffer (50mM boric acid (Fisher Scientific, Waltham, MA), 12mM sodium tetraborate (Sigma-Aldrich), pH 8.4). The plate was incubated at 37°C for 2h, washed 3-times with 200μL sterile ddH2O and then air dried. Next, 10μL of 20μg/mL laminin (Sigma) in Primary Neural Basal Medium (PNBM) (Lonza) was spotted over the PEI-treated electrode surface and incubated for 2h at 37°C. Laminin was removed and immediately replaced with 10μL/well of 7x10^6 cells/mL rat DRGs in PNBM. […] Baseline spontaneous firing was recorded for approximately 1 min. Twenty-five μL of PNBM, 325nM capsaicin (MP Biomedicals, 25nM final, EC80) in PNBM, or 325nM capsaicin plus test compound was then added, and action potentials were continuously recorded for another 2 min with six replicate wells used per condition. MEA data were analyzed using Axion Integrated Studio AxIS2.1 (Axion Biosystems) and GraphPad Prism version 7.02 for Windows (GraphPad Software, La Jolla, CA). […]

Data set [4] deals with mechanically-induced C-fiber action potential firing. Set-up: species or system mouse. The procedure:
Male C57BL/6 mice (Charles River Laboratories, San Diego, CA) between 2–3 months old (136 total mice used in study) were housed under standard temperature conditions (22–24°C) and illumination (12-hour light/dark cycle with lights on at 6:30 AM) with ad libitum access to fresh water and food. Mice were euthanized by CO2 followed by cervical dislocation. Experimental procedures for mouse skin-saphenous nerve studies were conducted as previously described with the use of 0.1% BSA (Acros) in the bath solution to decrease non-specific loss of peptide to chamber components [32]. Briefly, the saphenous nerve and skin from the left medial dorsum of the hind paw were dissected and mounted in a custom-made organ bath chamber. The proximal saphenous nerve end was passed through a hole into a separate recording chamber, desheathed and teased into fine fibers for extracellular recording. Mechanical responses were evoked by square force waves using a mechanical stimulator before and following peptide application to a small area of the corium (dermis) side of the skin in a custom-made stainless steel ring. Recording and analysis of C-fiber-mediated action potentials were performed in a blinded manner with respect to peptide treatment. […]

The next data set concerns the target human NaV1.7 (Homo sapiens, UniProt Q15858). Put plainly: Manual whole cell patch clamp, human NaV1.7. Format: cell-based.
The target of a further data set is human NaV1.2 (Homo sapiens, UniProt Q99250). The data set can be described thus: Manual whole cell patch clamp, human NaV1.2. Format: cell-based. Particulars: 20% channel inactivation, n = 2–4 cells per data point. The procedure: as §1
(§2) Fig 5 Selectivity of AM-8145 for human NaV channels in heterologous cells and native NaV currents in mDRG neurons. A. Concentration response curves for TTX-S channels including NaV1.1-NaV1.4, NaV1.6-NaV1.7 and mDRG TTX-S. IC50 values with fold-selectivity compared to NaV1.7 are listed in parenthesis. AM-8145 was 30- to 120-fold selective for NaV1.7 over NaV1.1-NaV1.4 and NaV1.6. B. Concentration response curves for TTX-R channels including NaV1.5, NaV1.8 and mDRG TTX-R. AM-8145 was over 1,700-fold selective for NaV1.7 over NaV1.5, NaV1.8 and mDRG TTX-R. Curves in A and B were derived from whole cell patch clamp experiments. Data are presented as mean ± SEM with n = 2–4 cells per data point. C. Representative current traces for TTX-S channels before (black) and after (red) 10 nM AM-8145 addition. […]

In data set [5] the target is T1, human NaV1.4. The data set can be described thus: Manual whole cell patch clamp, human NaV1.4. Type of data set: cell-based. Particulars: 20% channel inactivation, n = 2–4 cells per data point. The method, then:
as §1, §2
On the technique in general: The patch-clamp technique gives a direct electrical read-out from membranes.

In data set [6] the target is T2, human NaV1.5. Put plainly: in vitro. Format: cell-based. The procedure: as §1, §2
For the next data set, the target named is T3, human NaV1.8 (Homo sapiens, UniProt Q9Y5Y9).
T3 construct: expressed in transfected cells
Put plainly: Manual whole cell patch clamp, human NaV1.8. Type of data set: cell-based. Particulars: 20% channel inactivation. The procedure:
as §1, §2

Data set [7] deals with T4, native TTX-R NaV1.8 channels in mouse DRG neurons (Mus musculus, UniProt Q6QIY3).
T4 construct: endogenous in cells; host or cells: dissociated mouse DRG neurons
The data set can be described thus: Manual whole cell patch clamp, native TTX-R NaV channels in mouse DRG neurons. Particulars: 20% channel inactivation. Format: cell-based. The method, then: as §1, §2

The next data set addresses T5, wild-type NaV1.7 (Homo sapiens, UniProt Q15858).
T5 construct: expressed in transfected cells; host or cells: BacMam transduced U2-OS cells
Put plainly: IWQ chimera mapping, wild-type NaV1.7. Format: cell-based. Particulars: IWQ platform; mean ± SEM. The method, then:
as §1
(§3) Given the lack of robust bioactivity of AM-8145 on NaV1.5, we evaluated AM-8145 functional block on a battery of human NaV1.7-NaV1.5 chimeric channels, in which individual voltage sensor domains (transmembrane domains S1-S4 of domains I-IV) or the entire pore domain (transmembrane domains S5-S6 of domains I-IV) of NaV1.7 were inserted into the NaV1.5 backbone.
(§4) Fig 4 AM-8145 maps to the second voltage sensor domain on hNaV1.7. Potency of AM-8145 inhibition of wild-type NaV1.7, wild-type NaV1.5, or chimeric NaV1.7/NaV1.5 channels (red illustrates NaV1.7 sequence and gray illustrates NaV1.5 sequence) on the IWQ platform (mean ± SEM). D = “Domain”; S = “Sensor” corresponding to transmembrane segments 1–4; P = “Pore” corresponding to transmembrane segments 5–6. […]

For data set [8], the system named is NaV1.7/NaV1.5 chimera DIS (first NaV1.7 voltage-sensor domain in NaV1.5 backbone). The data set can be described thus: IWQ chimera mapping, chimera DIS. Type of data set: cell-based, human. Particulars: IWQ platform; BacMam transduced U2-OS cells. The procedure: as §1, §3, §4
The subject of data set [9] is NaV1.7/NaV1.5 chimera DIIIS (third NaV1.7 voltage-sensor domain in NaV1.5 backbone). Put plainly: IWQ chimera mapping, chimera DIIIS. Format: cell-based, human. The conditions noted are these: IWQ platform; BacMam transduced U2-OS cells. The method, then: as §1, §3, §4
Data set [10] concerns NaV1.7/NaV1.5 chimera DIVS (fourth NaV1.7 voltage-sensor domain in NaV1.5 backbone). The data set can be described thus: IWQ chimera mapping, chimera DIVS. Type of data set: cell-based, human. The conditions noted are these: IWQ platform; BacMam transduced U2-OS cells. The method, then:
as §1, §3, §4

The target in a further data set is wild-type NaV1.5 (Homo sapiens, UniProt Q14524). Put plainly: IWQ chimera mapping, wild-type NaV1.5. Format: cell-based. Also on record: expressed in transfected cells; host or cells: BacMam transduced U2-OS cells. Particulars: IWQ platform. The method, then:
as §1, §3, §4

T1 sequence (P35499 whole entry): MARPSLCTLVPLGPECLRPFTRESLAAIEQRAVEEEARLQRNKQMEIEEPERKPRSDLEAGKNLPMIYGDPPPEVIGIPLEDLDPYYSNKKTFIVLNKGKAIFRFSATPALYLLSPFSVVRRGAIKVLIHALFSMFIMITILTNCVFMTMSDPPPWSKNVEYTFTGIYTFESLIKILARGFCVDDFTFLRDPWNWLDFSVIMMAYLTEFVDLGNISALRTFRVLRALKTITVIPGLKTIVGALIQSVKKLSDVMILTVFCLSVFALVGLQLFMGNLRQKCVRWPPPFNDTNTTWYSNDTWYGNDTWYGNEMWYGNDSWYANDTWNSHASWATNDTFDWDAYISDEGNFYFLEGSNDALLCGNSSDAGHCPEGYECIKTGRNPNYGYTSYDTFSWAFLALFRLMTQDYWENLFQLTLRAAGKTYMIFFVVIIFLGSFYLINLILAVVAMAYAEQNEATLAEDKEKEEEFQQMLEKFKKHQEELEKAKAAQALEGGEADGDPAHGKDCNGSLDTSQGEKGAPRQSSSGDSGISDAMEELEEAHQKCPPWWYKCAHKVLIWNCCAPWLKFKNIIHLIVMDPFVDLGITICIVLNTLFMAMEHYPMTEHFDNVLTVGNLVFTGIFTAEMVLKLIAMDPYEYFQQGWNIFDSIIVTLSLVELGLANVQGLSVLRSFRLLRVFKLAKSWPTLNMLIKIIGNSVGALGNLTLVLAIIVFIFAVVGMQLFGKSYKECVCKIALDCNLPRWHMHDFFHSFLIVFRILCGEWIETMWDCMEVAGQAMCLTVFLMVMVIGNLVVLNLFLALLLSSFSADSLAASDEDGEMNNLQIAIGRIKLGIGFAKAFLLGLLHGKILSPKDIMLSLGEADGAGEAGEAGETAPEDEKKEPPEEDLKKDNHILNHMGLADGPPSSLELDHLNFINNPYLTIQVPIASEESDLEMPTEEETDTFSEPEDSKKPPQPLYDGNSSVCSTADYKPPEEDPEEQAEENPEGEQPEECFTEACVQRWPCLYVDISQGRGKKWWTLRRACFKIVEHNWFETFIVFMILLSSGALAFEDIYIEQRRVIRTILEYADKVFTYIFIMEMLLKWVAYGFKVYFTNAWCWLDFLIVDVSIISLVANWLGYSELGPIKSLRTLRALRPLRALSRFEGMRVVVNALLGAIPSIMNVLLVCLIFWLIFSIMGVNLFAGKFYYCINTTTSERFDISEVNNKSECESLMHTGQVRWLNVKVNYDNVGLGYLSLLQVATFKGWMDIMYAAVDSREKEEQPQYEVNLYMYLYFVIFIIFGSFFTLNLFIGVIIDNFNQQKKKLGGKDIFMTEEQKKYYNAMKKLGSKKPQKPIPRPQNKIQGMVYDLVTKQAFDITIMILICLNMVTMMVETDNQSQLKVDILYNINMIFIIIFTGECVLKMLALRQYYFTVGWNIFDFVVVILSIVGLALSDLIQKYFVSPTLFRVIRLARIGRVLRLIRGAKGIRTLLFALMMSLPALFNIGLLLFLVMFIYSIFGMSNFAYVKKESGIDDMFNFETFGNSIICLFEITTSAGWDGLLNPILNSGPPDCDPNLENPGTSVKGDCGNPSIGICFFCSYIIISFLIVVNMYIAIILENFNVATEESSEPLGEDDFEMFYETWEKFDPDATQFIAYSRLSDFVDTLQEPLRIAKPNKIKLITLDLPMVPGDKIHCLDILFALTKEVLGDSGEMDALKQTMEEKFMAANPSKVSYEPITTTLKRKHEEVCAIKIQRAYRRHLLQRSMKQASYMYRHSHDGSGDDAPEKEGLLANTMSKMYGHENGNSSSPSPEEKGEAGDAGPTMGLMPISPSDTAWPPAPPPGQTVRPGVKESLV
human NaV1.7, sequence (Q15858 whole entry): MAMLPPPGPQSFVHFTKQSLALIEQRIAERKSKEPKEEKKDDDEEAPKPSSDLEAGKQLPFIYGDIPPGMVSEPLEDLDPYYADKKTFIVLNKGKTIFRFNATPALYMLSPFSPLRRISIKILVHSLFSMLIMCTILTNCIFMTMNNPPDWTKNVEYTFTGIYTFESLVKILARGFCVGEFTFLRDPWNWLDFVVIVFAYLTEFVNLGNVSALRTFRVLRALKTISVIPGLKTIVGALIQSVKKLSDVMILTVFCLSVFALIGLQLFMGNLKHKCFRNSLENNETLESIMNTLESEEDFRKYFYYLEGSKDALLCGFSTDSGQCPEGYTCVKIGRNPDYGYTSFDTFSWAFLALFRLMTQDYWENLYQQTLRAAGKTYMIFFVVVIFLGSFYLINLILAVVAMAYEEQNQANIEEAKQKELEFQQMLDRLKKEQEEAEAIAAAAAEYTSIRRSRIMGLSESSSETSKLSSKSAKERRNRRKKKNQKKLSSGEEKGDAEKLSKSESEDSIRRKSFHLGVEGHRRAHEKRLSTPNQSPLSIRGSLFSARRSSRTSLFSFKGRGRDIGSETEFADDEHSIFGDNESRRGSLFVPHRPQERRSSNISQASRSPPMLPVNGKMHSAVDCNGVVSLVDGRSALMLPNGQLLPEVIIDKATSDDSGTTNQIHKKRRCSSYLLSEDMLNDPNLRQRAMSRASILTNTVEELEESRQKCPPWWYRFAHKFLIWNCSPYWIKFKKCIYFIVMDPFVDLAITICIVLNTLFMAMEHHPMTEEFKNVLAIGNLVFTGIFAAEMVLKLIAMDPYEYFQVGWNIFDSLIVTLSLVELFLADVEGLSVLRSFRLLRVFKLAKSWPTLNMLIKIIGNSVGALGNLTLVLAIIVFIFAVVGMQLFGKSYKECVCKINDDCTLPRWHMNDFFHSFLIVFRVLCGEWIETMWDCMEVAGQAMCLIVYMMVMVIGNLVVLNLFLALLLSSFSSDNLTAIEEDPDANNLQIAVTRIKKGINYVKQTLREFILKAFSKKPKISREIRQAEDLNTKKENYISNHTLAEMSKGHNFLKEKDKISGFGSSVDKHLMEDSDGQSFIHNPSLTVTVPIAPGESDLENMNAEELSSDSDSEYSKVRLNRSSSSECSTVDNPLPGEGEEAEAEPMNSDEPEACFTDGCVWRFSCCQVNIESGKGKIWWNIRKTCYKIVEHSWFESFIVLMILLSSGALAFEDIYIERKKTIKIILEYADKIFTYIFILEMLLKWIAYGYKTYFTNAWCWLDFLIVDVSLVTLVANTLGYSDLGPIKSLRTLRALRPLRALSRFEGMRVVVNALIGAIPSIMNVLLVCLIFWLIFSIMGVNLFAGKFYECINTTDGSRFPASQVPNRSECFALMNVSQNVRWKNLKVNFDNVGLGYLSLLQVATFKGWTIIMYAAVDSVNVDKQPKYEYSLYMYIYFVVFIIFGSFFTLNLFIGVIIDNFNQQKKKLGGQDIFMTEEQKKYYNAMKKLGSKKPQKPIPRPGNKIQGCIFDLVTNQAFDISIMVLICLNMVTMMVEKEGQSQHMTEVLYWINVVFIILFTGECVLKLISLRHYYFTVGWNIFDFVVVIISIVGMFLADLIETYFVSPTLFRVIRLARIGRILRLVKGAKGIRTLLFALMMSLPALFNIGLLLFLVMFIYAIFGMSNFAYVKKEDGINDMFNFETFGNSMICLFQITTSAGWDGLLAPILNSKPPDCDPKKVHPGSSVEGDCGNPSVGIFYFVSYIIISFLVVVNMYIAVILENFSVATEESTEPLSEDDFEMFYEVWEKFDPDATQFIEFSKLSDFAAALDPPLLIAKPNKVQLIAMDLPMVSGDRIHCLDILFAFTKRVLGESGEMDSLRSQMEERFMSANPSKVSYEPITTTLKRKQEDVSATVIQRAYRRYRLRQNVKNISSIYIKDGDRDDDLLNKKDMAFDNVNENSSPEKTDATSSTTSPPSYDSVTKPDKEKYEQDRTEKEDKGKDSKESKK
T5 sequence (Q15858 whole entry): as above

Take `C#CC[C@@H]1NC(=O)[C@@H]2CSSC[C@H](NC(=O)[C@H](Cc3ccc(O)cc3)NC(=O)[C@@H](N)CC#N)C(=O)N[C@@H](CCC(N)=O)C(=O)N[C@@H](CCCCN)C(=O)N[C@@H](Cc3c[nH]c4ccccc34)C(=O)N[C@@H](CCCC)C(=O)N[C@@H](Cc3c[nH]c4ccccc34)C(=O)N[C@@H]([C@@H](C)O)C(=O)N[C@H]3CSSC[C@H](NC(=O)[C@H](CCCNC(=N)N)NC(=O)[C@H](CC(C)C)NC(=O)CNC1=O)C(=O)N[C@@H](CCCCN)C(=O)N[C@@H](CC(C)C)C(=O)N[C@@H](Cc1c[nH]c4ccccc14)C(=O)N[C@H](C(=O)N[C@@H](CCCNC(=N)N)C(=O)N[C@@H](CCCCN)C(=O)N[C@@H](CCC(=O)O)C(=O)N[C@H](C(N)=O)[C@@H](C)CC)CSSC[C@H](NC(=O)[C@H](C)NC(=O)[C@H](CCCNC(=N)N)NC(=O)[C@H](CCCCN)NC(=O)[C@H](CO)NC(=O)[C@H](CC(=O)O)NC3=O)C(=O)N2` [AM-0422, CyA-[Nle6;Pra17;Glu28]JzTx-V(1–29)]: the IC50 – broadly, the concentration that inhibits the measured activity by half – against human NaV1.4 [1] is 103 nM; on human NaV1.5 [2] (human), 966 nM; in data set [3] it was 21.1 ± 5.7 nM; in [4] it was 880 nM.
In the case of `C#CC[C@H](N)C(=O)N[C@@H](Cc1ccc(O)cc1)C(=O)N[C@H]1CSSC[C@@H]2NC(=O)[C@@H]3CSSC[C@@H](C(=O)N[C@@H](CCCNC(=N)N)C(=O)N[C@@H](CCCCN)C(=O)N[C@@H](CCC(=O)O)C(=O)N[C@H](C(N)=O)[C@@H](C)CC)NC(=O)[C@H](Cc4c[nH]c5ccccc45)NC(=O)[C@H](CC(C)C)NC(=O)[C@H](CCCCN)NC(=O)[C@H](CSSC[C@H](NC(=O)[C@H]([C@@H](C)O)NC(=O)[C@H](Cc4c[nH]c5ccccc45)NC(=O)[C@H](CCCC)NC(=O)[C@H](Cc4c[nH]c5ccccc45)NC(=O)[C@H](CCCCN)NC(=O)[C@H](CCC(N)=O)NC1=O)C(=O)N[C@@H](CC(=O)O)C(=O)N[C@@H](CO)C(=O)N[C@@H](CCCCN)C(=O)N[C@@H](CCCNC(=N)N)C(=O)N[C@@H](C)C(=O)N3)NC(=O)[C@H](CCCNC(=N)N)NC(=O)[C@H](CC(C)C)NC(=O)CNC(=O)[C@H](CCC(=O)O)NC2=O` [AM-8145, Pra-[Nle6;Glu28]JzTx-V(1–29)], the “selectivity for NaV1.7 over NaV1.4” value on human NaV1.4 [1] (PX platform IC50 ratio) was 300 fold. For the same molecule, the IC50 was 145 nM at human NaV1.4 [1]; 3000 nM against human NaV1.5 [2]; 0.58 nM against human NaV1.7 (manual patch clamp, voltage protocol with 20% of channels inactivated); 43.5 nM against human NaV1.2; 71 nM at human NaV1.4 [5]; above 1000 nM at human NaV1.5 [6] (manual patch clamp, 20% channel inactivation). In addition, the IC50 on human NaV1.8 was above 1000 nM; in data set [7] it was above 1000 nM; on wild-type NaV1.7, 50 ± 10 nM; in data set [8], above 3000 nM; in data set [9], above 3000 nM; in [10], above 3000 nM. Moreover, the IC50 against wild-type NaV1.5 was above 3000 nM. Besides, the selectivity ratio at human NaV1.5 [2] (human, PX platform IC50 ratio, read-out: selectivity for NaV1.7 over NaV1.5) was 6000; on human NaV1.5 [6] (manual patch clamp IC50 ratio, read-out: fold-selectivity compared to NaV1.7, NaV1.5), above 1700. Also, at human NaV1.7 (manual patch clamp IC50 ratios), the “selectivity over human TTX-R channels (NaV1.5, NaV1.8) and native TTX-R channels in mouse DRG neurons” value was “over 1,000 fold”. For the same molecule, the “selectivity over other human TTX-S Nav channels (NaV1.1, NaV1.2, NaV1.3, NaV1.4, NaV1.6)” value on human NaV1.7 (manual patch clamp IC50 ratios) was 30- to 120 fold.
